From the NIST ThermoML archive (doi:10.1021/acs.jced.9b00509)

Experiment: mean ionic activity coefficient (dimensionless); mn = molality of the nth substance listed, in mol/kg
Details: 278.15 K, 100 kPa, Liquid, cell potential measurements

[Cl-].[Na+] [sodium chloride] + O
Details | mean ionic activity coefficient
m1 = 0.0101 | 0.895
m1 = 0.05 | 0.833
m1 = 0.0999 | 0.771
m1 = 0.1999 | 0.741
m1 = 0.5 | 0.642
m1 = 0.9999 | 0.619
m1 = 1.999 | 0.628
m1 = 2.999 | 0.654
